In one assay the test system is B. Cereus ATCC 11778. In words: MIC, NCCLS broth microdilution. In kind it is cell-based, Bacillus cereus. The following applies: Bacillus cereus. A digest of the protocol: (§1)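 MIC determined by broth microdilution in microtiter plates following NCCLS guidelines (documents M7-A4, M11-A4 and M27-T).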
The subject of assay [1] is E. faecium ATCC 51559 (vancomycin resistant strain, VRE). In words: MIC, NCCLS broth microdilution. In kind it is cell-based, Enterococcus faecium. The following applies: Enterococcus faecium, read-out: Minimum Inhibitory Concentration (MIC). The text has this:
(§2) In vitro biological activity data were collected for a variety of microorganisms, including Bacillus cereus (ATCC 11778), Staphylococcus aureus (ATCC 27660 (a methicillin resistant strain (MRSA), ATCC 33591 and ATCC 43300); ATCC 13709, a methicillin sensitive strain (MSSA)); Streptococcus pneumoniae (ATCC 51422, a penicillin resistant strain (PRSP)), Enterococcus faecium (ATCC 51559, a vancomycin resistant strain (VRE)), and Staphylococcus epidermidis (ATCC 700586, a methycillin resistant strain (MRSE)). Additionally, antifungal activity data were collected for Candida albicans (ATCC 38247). Minimal inhibition concentrations (MIC's) were determined using the National Committee for Clinical Laboratory Standards (NCCLS) broth microdilution assay in microtiter plates, as set forth in: (1) the guidelines of the National Committee for Clinical Laboratory Standards (NCCLS) Document M7-A4 (NCCLS, 1997); (2) the guidelines of the National Committee for Clinical Laboratory Standards (NCCLS) Document M11-A4 (NCCLS, 1997); and (3) the guidelines and reference method of the National Committee for Clinical Laboratory Standards (NCCLS) Document M27-T (NCCLS, 1995). For antifungal essays, the method recommended in Murray, PR., 1995 Manual of Clinical Microbiology (ASM Press, Washington, D.C.), was employed.

Assay [2] relates to S. aureus ATCC 13709 (methicillin sensitive strain, MSSA). In words: MIC, NCCLS broth microdilution. In kind it is cell-based, Staphylococcus aureus. The following applies: Staphylococcus aureus, read-out: Minimum Inhibitory Concentration (MIC). The essentials:
as §1

For assay [3], the system named is S. aureus ATCC 27660 (methicillin resistant strain, MRSA). The assay can be described thus: MIC, NCCLS broth microdilution. In kind it is cell-based, Staphylococcus aureus. The following applies: Staphylococcus aureus, read-out: Minimum Inhibitory Concentration (MIC). A digest of the protocol: as §1
A further assay has as its system S. aureus ATCC 33591. In words: MIC, NCCLS broth microdilution. The class given is cell-based, Staphylococcus aureus. The following applies: Staphylococcus aureus. The essentials: as §1
A general note: In broth dilution the organism is exposed to a series of concentrations in liquid medium.

For another assay, the system named is S. aureus ATCC 43300. In words: MIC, NCCLS broth microdilution. The class given is cell-based. The following applies: Staphylococcus aureus, ATCC43300, read-out: Minimum Inhibitory Concentration (MIC).
Excerpt: as §2

Assay [4] has as its system S. epidermidis ATCC 700586 (methycillin resistant strain, MRSE). In words: MIC, NCCLS broth microdilution. The following applies: Staphylococcus epidermidis, read-out: Minimum Inhibitory Concentration (MIC). The class given is cell-based, Staphylococcus epidermidis.
Excerpt: as §2

Assay [5] deals with S. pneumoniae ATCC 51422 (penicillin resistant strain, PRSP). The assay can be described thus: MIC, NCCLS broth microdilution. The class given is cell-based, Streptococcus pneumoniae. The following applies: Streptococcus pneumoniae, read-out: Minimum Inhibitory Concentration (MIC).
Excerpt: as §2

The subject of assay [6] is Candida albicans (ATCC 38247). The assay can be described thus: Antifungal MIC. In kind it is cell-based. The following applies: ATCC38247, read-out: MIC.
Excerpt: as §2, with “employed. The results are presented in Table A below, which is keyed as follows: […]” for “employed.”

The subject of assay [7] is methycillin resistant Staphylococcus aureus ATCC 33591. In words: Murine neutropenic thigh model. In kind it is in vivo, mice. The following applies: 50 mg/kg intravenously two hours post infection, 6 hr after treatment. The procedure:
A S. aureus ATCC 33591 culture was grown to log phase overnight and diluted in phosphate buffered saline (pH 7.2) to an optical density of about 0.1 at 600 nm, giving an approximate concentration of 10^8 cfu/mL. The suspension was diluted 1:100 in phosphate buffered saline (pH 7.2) for a final concentration of 10^6 cfu/mL.
Outbred female CF1 mice (approx. 20 gram body weight) were rendered neutropenic by treatment with cyclophosphamide (200 mg/kg body weight, intraperitoneal injection) at 2 and 4 days prior to inoculation. Groups of 5 mice were inoculated with 0.05 mL of the bacteria (approx. 10^6 cfu/mL) into the anterior thigh. Each group was treated intravenously two hours post infection with vehicle (phosphate buffered saline) or test compound. The mice were sacrificed at either 6 or 24 hrs after treatment and thighs were collected aseptically. Each thigh was weighed, placed into sterile saline, and homogenized. The tissue homogenates were diluted appropriately for plating on agar plates. Colony counts were recorded (cfu/gram) and compared to control groups.
In vivo efficacy was shown by a decrease in colony count (log cfu/gram of tissue) in the compound-treated animals when compared against the colony count in animals given only the vehicle.

≈ marks a conversion by molar mass, not a printed value. Where two headings read alike, the source gives them in different places. Bounds are passed on as bounds.

These results are taken from patent US20040142971A1, “BENZOTHIOPHENE COMPOUNDS HAVING ANTIINFECTIVE ACTIVITY” (GeneSoft, Inc., priority 2001, published 2004).

For the compound `Cn1cc(NC(=O)c2cc(NC(=O)c3cc(NC(=O)c4sc5ccccc5c4Cl)cn3C)cn2C)cc1C(=O)NCCN1CCOCC1` [Ib-1], the MIC was below 4 µg/mL with B. Cereus ATCC 11778 (ATCC11778, read-out: Minimum Inhibitory Concentration (MIC)); below 4 µg/mL in assay [1]; below 4 µg/mL in assay [2]; below 4 µg/mL in [3]; below 4 µg/mL with S. aureus ATCC 33591 (ATCC33591, read-out: Minimum Inhibitory Concentration (MIC)); below 4 µg/mL in the assay with S. aureus ATCC 43300. The MIC in assay [4] and in assay [5] was below 4 µg/mL throughout.
As to `Cn1cc(NC(=O)c2cc(NC(=O)c3cc(NC(=O)c4sc5ccccc5c4Cl)c[nH]3)cn2C)cc1C(=O)NCCN1CCCC1` [Ib-48], the MIC is below 4 µg/mL in the assay on B. Cereus ATCC 11778 (ATCC11778, A = B. Cereus ATCC 11778, read-out: Minimum Inhibitory Concentration (MIC)); 4 to 12 µg/mL (≈ 6.05 to 18.1 µM) in assay [1] (B = E. faecium ATCC 51559); below 4 µg/mL in [2] (C = S. aureus ATCC 13709); below 4 µg/mL in assay [3] (D = S. aureus ATCC 27660); below 4 µg/mL with S. aureus ATCC 33591 (ATCC33591, E = S. aureus ATCC 33591, read-out: Minimum Inhibitory Concentration (MIC)); below 4 µg/mL in [4] (G = S. epidermidis ATCC 700586). Also, the MIC in assay [5] (H = S. pneumoniae ATCC 51422) and in assay [6] was below 4 µg/mL throughout. In addition, the “Colony Count (log cfu/gram) Compound” value in assay [7] was 4.74 log cfu/gram.
